Among the test systems are HCT-116; MDA-MB-435; MOLT-4; SK-OV-3; DU-145; HCT-15; SK-MEL-28; Malme-3M; NCI-H23; A498; OVCAR-4; OVCAR-8; IGROV-1; NCI-H460; SF-268; EKVX; HT-29; UACC-257; A549; NCI-H226.
Holding throughout (assay): NCI-60 cell line screen, 48 h

The text below walks through data of ChEMBL document CHEMBL1201862, “PubChem BioAssay data set” (2004).

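Results reflect a 48-hour exposure of cells in 96-well plates to compound at five concentrations. Here, GI50 denotes the concentration required for 50% inhibition of growth.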 The source made the active and inactive calls. No stated cut-off is given here; in the data, active = GI50 up to about 1.1 µM and inactive = higher. Some results are limits rather than exact numbers.

In the case of `COC(=O)C1C(O)C(C)C(O)C(C)(O)C=C(C)C2=C3C(=C(C)C(=O)c4c(O)c(c(C)c(OC(C)=O)c43)NC(=O)C(C)=C/C=C\C(C)(O)C(O)C(C)C1O)OCO2` (stereo not given), the GI50 was 35.5 µM (inactive) with HCT-116; 33.9 µM (inactive) in the assay with MDA-MB-435; 67.6 µM (inactive) in the assay on MOLT-4; > 100 µM (inactive) with SK-OV-3; > 100 µM (inactive) in the assay with DU-145; > 100 µM in the assay with HCT-15. The GI50 was > 100 µM (inactive) with SK-MEL-28; 33.7 µM (inactive) in the assay with Malme-3M; > 100 µM (inactive) with NCI-H23; > 100 µM (inactive) with A498; 56.4 µM (inactive) in the assay with OVCAR-4; > 100 µM (inactive) with OVCAR-8. Moreover, the GI50 in the assay with IGROV-1 is 55.6 µM (inactive); with NCI-H460, > 100 µM (inactive); with SF-268, 75.2 µM (inactive); with EKVX, > 100 µM (inactive); in the assay on HT-29, 62.2 µM (inactive); with UACC-257 it was 28.9 µM (inactive). Moreover, the GI50 in the assay with A549 was 88.9 µM (inactive); with NCI-H226, > 100 µM (inactive).

`CC(C)(C)OC(=O)C1=C(N)N(Cc2ccccc2)C2(C)C=CC(=O)C=C12` (stereo not given): the GI50 with HCT-116 is 3.27 µM (inactive); in the assay on MDA-MB-435 it was 4.02 µM (inactive); with MOLT-4, 2.48 µM (inactive); in the assay on SK-OV-3 it was 19.5 µM (inactive); in the assay on DU-145, 4.04 µM (inactive); in the assay on HCT-15, 3.21 µM. The GI50 in the assay with SK-MEL-28 is 7.41 µM (inactive); with Malme-3M it was 4.92 µM (inactive); in the assay with NCI-H23 it was 9.29 µM (inactive); in the assay with A498, 10.2 µM (inactive); in the assay with OVCAR-4, 3.36 µM (inactive); in the assay with OVCAR-8, 2.45 µM (inactive). The GI50 with IGROV-1 is 5.31 µM (inactive); with NCI-H460, 15.5 µM (inactive); with SF-268 it was 2.18 µM (inactive); with EKVX, 5.73 µM (inactive); in the assay on HT-29, 4.03 µM (inactive); with UACC-257, 5.24 µM (inactive). The GI50 is 12.4 µM (inactive) in the assay with A549 and 12.9 µM (inactive) in the assay on NCI-H226.

`CCc1nc(N)nc(N)c1-c1ccc(NCCc2ccccc2)c([N+](=O)[O-])c1`: the GI50 is 0.0649 µM (active) in the assay on HCT-116; 0.389 µM (active) in the assay on MDA-MB-435; 0.491 µM (active) with MOLT-4; 16.5 µM (inactive) in the assay on SK-OV-3; 1.14 µM (inactive) with DU-145; 0.108 µM in the assay on HCT-15. For the same molecule, the GI50 in the assay with SK-MEL-28 was 2.74 µM (inactive); in the assay on Malme-3M, 2.38 µM (inactive); in the assay with NCI-H23, 0.392 µM (active); with A498, 3.05 µM (inactive); with OVCAR-4, 3.24 µM (inactive); in the assay on OVCAR-8, 0.394 µM (active). Moreover, the GI50 is 0.394 µM (active) with IGROV-1; 0.0687 µM (active) in the assay on NCI-H460; 0.527 µM (active) in the assay on SF-268; 3.34 µM (inactive) in the assay with EKVX; 0.195 µM (active) in the assay on HT-29; 1.77 µM (inactive) with UACC-257. For the same molecule, the GI50 is 0.0861 µM (active) with A549 and 6.05 µM (inactive) in the assay with NCI-H226.

For the molecule `COC(=O)c1cc(CC2Cc3cc4c(cc3C2=O)CCC4)cc2c1CCC2` (stereo not given), the GI50 with HCT-116 is 42.2 µM (inactive); with MDA-MB-435, > 100 µM (inactive); in the assay on MOLT-4, > 100 µM (inactive); in the assay on SK-OV-3 it was > 100 µM (inactive); in the assay on DU-145, > 100 µM (inactive); in the assay on HCT-15 it was > 100 µM. In addition, the GI50 with SK-MEL-28 is > 100 µM (inactive); in the assay with Malme-3M, 37.8 µM (inactive); with NCI-H23, > 100 µM (inactive); with A498, > 100 µM (inactive); in the assay on OVCAR-4, 33.2 µM (inactive); with OVCAR-8 it was > 100 µM (inactive). Further, the GI50 in the assay on IGROV-1 was > 100 µM (inactive); in the assay on NCI-H460, > 100 µM (inactive); in the assay with SF-268, > 100 µM (inactive); in the assay on EKVX, > 100 µM (inactive); in the assay with HT-29, 51.8 µM (inactive); in the assay on UACC-257 it was 77.6 µM (inactive). The GI50 in the assay on A549 and with NCI-H226 was > 100 µM (inactive) in each case.

Take `COC(=O)c1cc(C#N)[nH]c1-c1ccc(Br)s1`: the GI50 in the assay with HCT-116 was 13.5 µM (inactive); in the assay on MDA-MB-435 it was 13.5 µM (inactive); in the assay on MOLT-4, 12.3 µM (inactive); in the assay with SK-OV-3 it was 11.6 µM (inactive); in the assay on DU-145, 10.8 µM (inactive); with HCT-15, 13.7 µM. For the same molecule, the GI50 in the assay with SK-MEL-28 is 11.9 µM (inactive); in the assay with Malme-3M, 7.14 µM (inactive); in the assay on NCI-H23, 5.08 µM (inactive); in the assay with A498, 1.03 µM (active); in the assay with OVCAR-4, 10.1 µM (inactive); in the assay with OVCAR-8 it was 12.8 µM (inactive). Moreover, the GI50 is 7.21 µM (inactive) in the assay on IGROV-1; 17.6 µM (inactive) in the assay with NCI-H460; 10.1 µM (inactive) in the assay with SF-268; 3.97 µM (inactive) in the assay on EKVX; 12.4 µM (inactive) in the assay with HT-29; 9.4 µM (inactive) with UACC-257. In addition, the GI50 with A549 and in the assay with NCI-H226 was 8.55 µM (inactive) each time.

Consider `O=C1C2CC(Cl)C(SSC3CC4C(=O)N(SC(Cl)(Cl)C(Cl)Cl)C(=O)C4CC3Cl)CC2C(=O)N1SC(Cl)(Cl)C(Cl)Cl` (stereo not given), for which the GI50 with HCT-116 is 2.49 µM (inactive); with MDA-MB-435 it was 1.65 µM (inactive); with MOLT-4, 0.192 µM (active); in the assay on SK-OV-3, 3.39 µM (inactive); with DU-145 it was 2.6 µM (inactive); with HCT-15 it was 1.29 µM. The GI50 in the assay on SK-MEL-28 was 2.15 µM (inactive); with Malme-3M, 1.51 µM (inactive); in the assay on NCI-H23, 1.66 µM (inactive); in the assay with A498, 2.81 µM (inactive); in the assay with OVCAR-4 it was 2.13 µM (inactive); with OVCAR-8, 1.45 µM (inactive). Besides, the GI50 with IGROV-1 is 1.3 µM (inactive); with NCI-H460, 2.39 µM (inactive); in the assay on SF-268, 1.65 µM (inactive); in the assay on EKVX it was 3.01 µM (inactive); with HT-29 it was 1.77 µM (inactive); in the assay on UACC-257 it was 2.02 µM (inactive). Also, the GI50 is 2.86 µM (inactive) with A549 and 3.67 µM (inactive) in the assay with NCI-H226.

`O=C1/C(=C/c2ccc(O)cc2)CCc2ccccc21`: the GI50 in the assay with HCT-116 was 16.1 µM (inactive); with MDA-MB-435, 21.5 µM (inactive); with MOLT-4 it was 2.82 µM (inactive); in the assay on SK-OV-3, > 55.6 µM (inactive); in the assay on DU-145 it was 24.8 µM (inactive); in the assay with HCT-15, 18.8 µM. The GI50 in the assay with SK-MEL-28 was 19.2 µM (inactive); with Malme-3M, 20.7 µM (inactive); in the assay with NCI-H23, 23.4 µM (inactive); with A498 it was 24.7 µM (inactive); in the assay with OVCAR-4, 18.5 µM (inactive); in the assay on OVCAR-8 it was 27.2 µM (inactive). For the same molecule, the GI50 with IGROV-1 is 26.9 µM (inactive); with NCI-H460 it was 29.3 µM (inactive); with SF-268, 16.1 µM (inactive); with EKVX it was 23 µM (inactive); with HT-29, 21.5 µM (inactive); with UACC-257, 17.3 µM (inactive). Besides, the GI50 with A549 is 23.6 µM (inactive); with NCI-H226 it was 24.5 µM (inactive).
